Assays:
[1] = test system: HIV-1 transcription; experiment: Inhibition of Tat-induced HIV-1 transcription in Ad-Tat-infected CEM GFP reporter cells; format: cell-based; conditions: for inhibition of HIV-1 transcription in CEM cells: CEM T-cells, 1H4-based library, in words
Protocol: (§1) Identification of the inhibitory compounds: The library was analyzed for the inhibition of HIV-1 transcription using reporter CEM GFP cells (courtesy of AIDS Reagents Program, NIH) that were infected with adenovirus expressing HIV-1 Tat activator protein (Ad-Tat) as previously described (Nekhai et al., 2007). Infection of CEM-GFP cells with Adeno-Tat induced HIV-1 transcription that was measured as gain of GFP fluorescence (Nekhai et al., 2007). Compounds were added at 25 μM concentration to the Ad-Tat-infected CEM-GFP cells and incubated for 24-48 hours. Cytotoxicity was evaluated by the uptake of propidium iodide (PI).

[2] = test system: CEM GFP cells; experiment: Cytotoxicity in CEM cells by uptake of propidium iodide; format: cell-based; conditions: 1H4-based library
Protocol: as §1
Identification of addition inhibitors. The 1H4 compound was used to create a second library of compounds that would have similar backbone as 1H4. This second library contained 143 compounds. These compounds were analyzed for the inhibition of HIV-1 transcription and toxicity in CEM T-cells and 293T cells similar as described above for the analysis of the first library.

[3] = test system: Tat-induced HIV-1 transcription; experiment: Inhibition of Tat-induced HIV-1 transcription in 293T cells transfected with Tat-expressing vector, HIV-1 LTR-LacZ reporter and CMV-EGFP reporter; format: cell-based; conditions: for inhibition of Tat-induced HIV-1 transcription in 293T cells: in words
Protocol: (§2) The compounds from Table 2 were further evaluated using 293T cells transfected with Tat- and HIV-1 LTR-LacZ. […] Compounds 1H4, 3C8, and 1G3 were further evaluated in 293T cells transfected with Tat-expressing vector, HIV-1 LTR-LacZ reporter and CMV-EGFP reporter. Inhibitory properties of these compounds were evaluated using 293T cells transfected with Tat-expressing vector, HIV-1 LTR-LacZ reporter and CMV-EGFP reporter (Ammosova et al., 2005a). 293T cells were transfected with lipofectamine and then treated with each of the selected compounds for 18 hours. Then the cells were lysed and GFP and β-galactosidase activity was determined as we previously described (Ammosova et al., 2005a). Compound 1H4 was the most inhibitory with IC50=5 μM (FIG. 1B). […] Neither of the compounds was cytotoxic as determined by LDH assay (not shown).

[4] = test system: HIV-1 IIIB; experiment: Inhibition of HIV-1 replication, IIIB (Table 6); format: cell-based; conditions: for inhibition of HIV-1 replication: Table 6 (IIIB, Q148R, N155H); for IC50: read-out: IIIB, IC50, HIV-1 replication
Protocol: (§3) Compounds 1H4, 1E07, B03 and as a control 1G3 were analyzed for inhibition of HIV-1 replication and results are shown in Table 6.

[5] = test system: HIV-1 Q148R; experiment: Inhibition of HIV-1 replication, Q148R (Table 6); format: cell-based; conditions: read-out: Q148R, IC50
Protocol: as §3

[6] = test system: HIV-1 N155H; experiment: Inhibition of HIV-1 replication, N155H (Table 6); format: cell-based; conditions: read-out: N155H, IC50
Protocol: as §3

[7] = test system: HIV-1 transcription; experiment: Inhibition of transcription, FIG. 1A (293T cells transfected with Tat- and HIV-1 LTR-LacZ); format: cell-based
Protocol: as §2

[8] = test system: 293T cells; experiment: Measurements of cytotoxicity, FIG. 1A; format: cell-based
Protocol: as §2

[9] = test system: recombinant pNL4-3 HIV-1; experiment: HIV-1 replication in MT4 cells infected with recombinant pNL4-3 HIV-1; format: cell-based; conditions: for inhibition of HIV-1 replication: MT4 cells, 1H4 at 10 μM or 25 μM (FIG. 2)
Protocol: HIV-1 replication is inhibited by a small molecular mimetic of QVCF peptide. The 1H4 compound was evaluated to determine whether it could inhibit HIV-1 replication. MT4 cells were infected with recombinant pNL4-3 HIV-1 and treated with different concentrations of 1H4 compound and as a control 1G3 compound.

[10] = test system: PP1; experiment: Tat-PP1 competition assay (PP1 activity); format: biochemical; conditions: for effect on Tat-mediated inhibition of PP1: 50 μM compound, 4 nM PP1, glycylglycine buffer (FIG. 3A)
Protocol: (§4) Competition assays were performed with 4 nM PP1 in glycylglycine buffer. […] To analyze if 1H4 compound has an effect on the activity of CDK2 we incubated recombinant CDK2/cyclin E with histone H1 without or with the addition of increasing concentrations of 1H4.

[11] = target: recombinant CDK2/cyclin E (Homo sapiens, UniProt P24941); experiment: CDK2/cyclin E activity with histone H1; format: biochemical; conditions: increasing concentrations; histone H1 substrate
Protocol: as §4

Row | Molecule | inhibition of Tat-induced HIV-1 transcription in 293T cells [3] | inhibition of HIV-1 replication [4] | IC50 [4] [µM] | IC50 [5] [µM] | IC50 [6] [µM] | further results
1 | CC(OC(=O)c1c2c(nc3ccccc13)/C(=C/c1ccc(Cl)cc1)CC2)C(=O)NC(N)=O (centres unmarked) |  |  |  |  |  | inhibition of HIV-1 transcription ([1]; cell line not stated, appeared to increase the rate of transcription instead): ineffective for inhibition of HIV-1 transcription
2 | COc1ccc(C(CNC(=O)CN2CCc3ccccc3C2)c2c[nH]c3ccccc23)cc1 (centres unmarked) [1E07] | inhibited HIV-1 transcription | inhibited HIV-1 replication | 2.5 | 1.5 | 3.2 | inhibition of HIV-1 transcription in CEM cells [1]: inhibited HIV-1 transcription; toxicity in the propidium iodide uptake assay [2]: not toxic
3 | COc1ccc(C(CNC(=O)CN2CCc3ccccc3C2)c2c[nH]c3ccccc23)cc1 (centres unmarked) [1G3, reference compound] |  |  | 37 | 42 | 59 | inhibition of HIV-1 transcription (FIG. 1A) [7]: neither inhibitory nor toxic; cytotoxicity (FIG. 1A) [8]: neither inhibitory nor toxic; induction of HIV-1 replication ([9]; MT4 cells (FIG. 2)): about 2 fold; inhibition of HIV-1 replication [9]: did not inhibit HIV-1 replication; effect on Tat-mediated inhibition of PP1 [10]: did not affect Tat-mediated inhibition of PP1
4 | COc1ccc(C(CNC(=O)CN2CCc3ccccc3C2)c2c[nH]c3ccccc23)cc1 (centres unmarked) [1H4] |  | inhibited HIV-1 replication | 9.4 | 4.7 | 8 | IC50 ([3]; Human immunodeficiency virus 1, HEK-293T, read-out: Transcription inh. in 293T cells (IC-50)): 5 µM; inhibition of HIV-1 transcription (FIG. 1A) [7]: inhibited HIV-1 transcription; cytotoxicity (FIG. 1A) [8]: not toxic; inhibition of HIV-1 replication [9]: inhibited HIV-1 replication; effect on Tat-mediated inhibition of PP1 [10]: relieved Tat-mediated inhibition of PP1; effect on the activity of CDK2 [11]: did not have a significant effect
5 | COc1ccc(C(CNC(=O)CN2CCc3ccccc3C2)c2c[nH]c3ccccc23)cc1 (centres unmarked) [2F02] | inhibited HIV-1 transcription |  |  |  |  | inhibition of HIV-1 transcription in CEM cells [1]: inhibited HIV-1 transcription
6 | COc1ccc(C(CNC(=O)CN2CCc3ccccc3C2)c2c[nH]c3ccccc23)cc1 (centres unmarked) [B03] | inhibitory | not inhibitory |  |  |  | 
7 | COc1ccc(C(CNC(=O)CN2CCc3ccccc3C2)c2c[nH]c3ccccc23)cc1 (centres unmarked) [E06] | inhibitory |  |  |  |  | 
8 | Tat: HIV-1 Tat protein that binds to the RVxF pocket of PP1 (protein, UniProt P04608 1-86, looked up) Protein Tat: MEPVDPRLEPWKHPGSQPKTACTNCYCKKCCFHCQVCFITKALGISYGRKKRRQRRRAHQNSQTHQASLSKQPTSQPRGDPTGPKE |  |  |  |  |  | inhibition of PP1 ([10]; excess of Tat protein, 4 nM PP1 (FIG. 3A)): inhibited PP1
